Values of other authors in doi:10.1101/2020.07.01.182659 (bioRxiv, 2020).

Assays:
[1] = system: ACE2
[2] = system: APJR
[3] = system: opioid receptors

Row | Substance | Km [1] [µM] | kcat/Km [1] [M⁻¹ s⁻¹] | affinity to APJR (in words) [2] | decrease of potency after cleavage of C-terminal phenylalanine [2] | ACE2 activity on peptide (in words) [1] | loss of potency on removal of C-terminal lysine [3] [%]
1 | QRPRLSHKGPMP↓F [Apelin-13] | < 10 | > 1e+06 | nanomolar affinity | 2–5 fold | – | –
2 | YGGFLRRIRPKL↓K [Dynorphin A 1–13] | < 10 | > 1e+06 | – | – | good ACE2 substrate | 90
3 | YPFVEP↓I [β–Casomorphin] | – | – | – | – | good ACE2 substrate | –
